From ChEMBL document CHEMBL1759897, “Discovery of non-peptide, small molecule antagonists of α9α10 nicotinic acetylcholine receptors as novel analgesics for the treatment of neuropathic and tonic inflammatory pain” (Bioorg Med Chem Lett, 2011) come the findings set out here.

Experiment [1] has as its target Neuronal acetylcholine receptor; alpha9/alpha10 (Homo sapiens) (UniProt Q9UGM1+Q9GZZ6). The experiment is described as follows: Antagonist activity at alpha9/alpha10 nAChR expressed in Xenopus oocyte assessed as inhibition of ACh-gated current response at 100 nM by voltage clamp electrophysiology assay. It counts as functional. Further details: scale not given: the % may be the effect or the level left.

The target in experiment [2] is Neuronal acetylcholine receptor subunit alpha-7 (Homo sapiens, UniProt P36544). The experiment is described as follows: Antagonist activity at alpha7 nAChR expressed in Xenopus oocyte assessed as inhibition of ACh-gated current by voltage clamp electrophysiology assay. It counts as functional.
In experiment [3] the target is Neuronal acetylcholine receptor; alpha9/alpha10 (Homo sapiens, UniProt Q9GZZ6+Q9UGM1). Description: Antagonist activity at alpha9/alpha10 nAChR expressed in Xenopus oocyte assessed as inhibition of ACh-gated current by voltage clamp electrophysiology assay. It counts as functional.
The species named for experiment [4] is Rattus norvegicus. The experiment is described as follows: Analgesic activity in rat pain model by tail flick test. It counts as functional, organism-based.
Experiment [5] concerns Rattus norvegicus. Description: Analgesic activity in rat chronic constriction nerve injury model of neuropathic pain assessed as reversal of mechanical hyperalgesia measured after repeated dosing for 7 days. It counts as functional, organism-based.
The species named for experiment [6] is Rattus norvegicus. The experiment is described as follows: Analgesic activity in rat inflammatory pain model assessed reduction formalin-induced inflammatory pain. It counts as functional, organism-based.
The species named for experiment [7] is Rattus norvegicus. Description: Analgesic activity in rat chronic constriction nerve injury model of neuropathic pain assessed as reversal of mechanical hyperalgesia. It counts as functional, organism-based.
Experiment [8] deals with Neuronal acetylcholine receptor; alpha3/beta4 (Homo sapiens, UniProt P30926+P32297). The experiment is described as follows: Inhibition of alpha3beta4 nAChR. It counts as protein-complex assay.
For experiment [9], the target named is Neuronal acetylcholine receptor; alpha4/beta2 (Homo sapiens, UniProt P17787+P43681). Description: Inhibition of alpha4beta2 nAChR. It counts as protein-complex assay.
A short description of experiment [10]: Inhibition of muscle nAChR. It counts as tissue-based, Muscle tissue.

Activity calls are given as the source filed them. The calls are words filed in the database; no cut-off is given here.

Sequence of Neuronal acetylcholine receptor; alpha9/alpha10 (Q9UGM1 whole entry): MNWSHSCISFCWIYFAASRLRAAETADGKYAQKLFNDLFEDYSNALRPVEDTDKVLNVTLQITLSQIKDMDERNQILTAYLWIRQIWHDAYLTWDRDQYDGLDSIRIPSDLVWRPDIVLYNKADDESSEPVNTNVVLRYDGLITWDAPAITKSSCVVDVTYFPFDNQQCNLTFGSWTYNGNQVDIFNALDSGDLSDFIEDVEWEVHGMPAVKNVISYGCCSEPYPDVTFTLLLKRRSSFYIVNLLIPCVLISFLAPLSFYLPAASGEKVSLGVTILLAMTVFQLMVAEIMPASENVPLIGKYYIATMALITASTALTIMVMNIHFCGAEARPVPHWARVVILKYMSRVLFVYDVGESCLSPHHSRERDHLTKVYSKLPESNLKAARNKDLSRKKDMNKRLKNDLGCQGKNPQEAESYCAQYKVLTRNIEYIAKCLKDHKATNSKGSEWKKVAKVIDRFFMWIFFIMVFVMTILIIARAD
Sequence of Neuronal acetylcholine receptor; alpha9/alpha10 (Q9GZZ6 whole entry): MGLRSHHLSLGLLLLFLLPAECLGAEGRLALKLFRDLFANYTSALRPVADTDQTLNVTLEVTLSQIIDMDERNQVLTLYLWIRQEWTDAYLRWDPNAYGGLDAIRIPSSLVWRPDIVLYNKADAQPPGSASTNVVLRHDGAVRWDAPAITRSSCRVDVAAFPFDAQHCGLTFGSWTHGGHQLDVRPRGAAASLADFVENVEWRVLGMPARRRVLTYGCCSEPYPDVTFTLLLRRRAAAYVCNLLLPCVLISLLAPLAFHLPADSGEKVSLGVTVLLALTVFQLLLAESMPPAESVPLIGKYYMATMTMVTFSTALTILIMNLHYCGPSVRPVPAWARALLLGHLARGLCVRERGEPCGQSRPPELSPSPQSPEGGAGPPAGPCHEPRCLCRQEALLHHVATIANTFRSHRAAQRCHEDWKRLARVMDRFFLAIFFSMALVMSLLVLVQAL
Sequence of Neuronal acetylcholine receptor subunit alpha-7 (P36544 whole entry): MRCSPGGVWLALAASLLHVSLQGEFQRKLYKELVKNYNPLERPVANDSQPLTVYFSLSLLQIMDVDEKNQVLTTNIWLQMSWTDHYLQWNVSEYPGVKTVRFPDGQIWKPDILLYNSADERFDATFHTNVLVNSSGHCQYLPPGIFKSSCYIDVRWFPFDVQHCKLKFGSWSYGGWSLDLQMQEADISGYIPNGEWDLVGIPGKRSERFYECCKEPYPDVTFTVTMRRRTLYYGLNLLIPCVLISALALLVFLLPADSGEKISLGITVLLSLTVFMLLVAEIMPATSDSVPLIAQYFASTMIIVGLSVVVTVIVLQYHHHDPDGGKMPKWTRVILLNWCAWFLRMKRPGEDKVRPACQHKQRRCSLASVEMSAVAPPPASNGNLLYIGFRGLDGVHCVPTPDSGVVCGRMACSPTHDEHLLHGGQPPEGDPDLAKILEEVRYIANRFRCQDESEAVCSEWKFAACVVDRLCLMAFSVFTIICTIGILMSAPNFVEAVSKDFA
Sequence of Neuronal acetylcholine receptor; alpha4/beta2 (P17787 whole entry): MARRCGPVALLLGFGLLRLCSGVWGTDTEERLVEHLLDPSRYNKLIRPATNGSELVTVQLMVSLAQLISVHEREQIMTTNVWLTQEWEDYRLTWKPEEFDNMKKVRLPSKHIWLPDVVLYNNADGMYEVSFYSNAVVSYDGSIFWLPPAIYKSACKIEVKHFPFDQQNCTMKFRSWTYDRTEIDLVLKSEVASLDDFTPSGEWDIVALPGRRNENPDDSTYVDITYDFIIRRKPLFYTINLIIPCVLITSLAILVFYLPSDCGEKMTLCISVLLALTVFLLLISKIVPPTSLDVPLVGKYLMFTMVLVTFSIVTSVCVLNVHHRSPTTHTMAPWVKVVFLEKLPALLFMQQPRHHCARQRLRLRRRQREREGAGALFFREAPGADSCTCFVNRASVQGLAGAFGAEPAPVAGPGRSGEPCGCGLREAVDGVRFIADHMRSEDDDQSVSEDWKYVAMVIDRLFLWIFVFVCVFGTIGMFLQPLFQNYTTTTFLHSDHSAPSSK
Sequence of Neuronal acetylcholine receptor; alpha4/beta2 (P43681 whole entry): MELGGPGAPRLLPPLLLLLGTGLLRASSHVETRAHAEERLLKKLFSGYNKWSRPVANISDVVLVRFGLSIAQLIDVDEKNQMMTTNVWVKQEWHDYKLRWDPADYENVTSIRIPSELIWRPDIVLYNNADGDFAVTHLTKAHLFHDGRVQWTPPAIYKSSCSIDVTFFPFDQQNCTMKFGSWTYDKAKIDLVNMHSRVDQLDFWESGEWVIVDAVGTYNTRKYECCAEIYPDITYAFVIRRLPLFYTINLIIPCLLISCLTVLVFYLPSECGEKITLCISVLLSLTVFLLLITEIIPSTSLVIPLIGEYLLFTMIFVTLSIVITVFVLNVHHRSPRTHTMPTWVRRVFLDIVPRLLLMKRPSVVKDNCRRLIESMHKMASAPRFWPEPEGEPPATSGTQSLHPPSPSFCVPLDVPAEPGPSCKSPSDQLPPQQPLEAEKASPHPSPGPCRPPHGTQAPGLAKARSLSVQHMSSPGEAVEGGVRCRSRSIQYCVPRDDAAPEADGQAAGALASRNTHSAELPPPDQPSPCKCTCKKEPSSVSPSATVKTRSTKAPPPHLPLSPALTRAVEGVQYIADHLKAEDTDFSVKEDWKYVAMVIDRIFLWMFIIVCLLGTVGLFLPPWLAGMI
Sequence of Neuronal acetylcholine receptor; alpha3/beta4 (P30926 whole entry): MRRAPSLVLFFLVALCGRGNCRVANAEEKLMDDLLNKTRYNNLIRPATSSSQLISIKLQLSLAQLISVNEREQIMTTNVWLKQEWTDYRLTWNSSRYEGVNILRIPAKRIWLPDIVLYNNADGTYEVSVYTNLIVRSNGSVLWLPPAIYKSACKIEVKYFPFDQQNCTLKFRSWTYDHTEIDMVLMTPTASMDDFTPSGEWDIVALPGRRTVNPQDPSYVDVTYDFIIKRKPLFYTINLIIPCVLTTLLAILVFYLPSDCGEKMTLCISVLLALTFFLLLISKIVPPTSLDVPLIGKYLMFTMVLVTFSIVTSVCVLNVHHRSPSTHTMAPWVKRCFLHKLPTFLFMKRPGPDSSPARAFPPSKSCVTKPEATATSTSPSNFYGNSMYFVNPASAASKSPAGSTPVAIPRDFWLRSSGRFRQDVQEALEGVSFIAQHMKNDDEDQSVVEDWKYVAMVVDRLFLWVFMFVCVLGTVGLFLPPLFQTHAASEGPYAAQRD
Sequence of Neuronal acetylcholine receptor; alpha3/beta4 (P32297 whole entry): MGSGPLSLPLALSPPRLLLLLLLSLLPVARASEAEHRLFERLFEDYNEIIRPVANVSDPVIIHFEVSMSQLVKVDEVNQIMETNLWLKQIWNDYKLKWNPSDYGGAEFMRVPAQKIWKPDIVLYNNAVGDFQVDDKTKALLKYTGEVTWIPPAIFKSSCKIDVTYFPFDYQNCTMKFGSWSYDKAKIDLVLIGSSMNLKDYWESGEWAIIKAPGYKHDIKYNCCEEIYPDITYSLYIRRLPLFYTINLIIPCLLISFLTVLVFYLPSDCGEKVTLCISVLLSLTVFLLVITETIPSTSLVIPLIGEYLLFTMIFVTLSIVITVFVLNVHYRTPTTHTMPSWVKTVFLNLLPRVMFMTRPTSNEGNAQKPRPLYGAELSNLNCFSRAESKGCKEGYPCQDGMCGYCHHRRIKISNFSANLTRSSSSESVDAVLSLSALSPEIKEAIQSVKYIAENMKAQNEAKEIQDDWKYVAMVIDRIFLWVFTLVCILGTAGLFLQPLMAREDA

Take `c1ccc2c[n+](CCCCCc3cc(CCCCC[n+]4ccc5ccccc5c4)c(CCCCC[n+]4ccc5ccccc5c4)cc3CCCCC[n+]3ccc4ccccc4c3)ccc2c1`: the Activity in [1] worked out at 17.9%.
For the compound `Cc1cc(C)c[n+](CCCc2ccc(-c3ccc(CCC[n+]4cc(C)cc(C)c4)cc3)cc2)c1`, the Activity in experiment [1] was 114%.
`c1ccc(-c2ccc[n+](CCCCCc3cc(CCCCC[n+]4cccc(-c5ccccc5)c4)cc(CCCCC[n+]4cccc(-c5ccccc5)c4)c3)c2)cc1`: the Activity in experiment [1] came to 3.84%.
Regarding `CCCCc1ccc[n+](CCCC#Cc2cc(C#CCCC[n+]3cccc(CCCC)c3)cc(C#CCCC[n+]3cccc(CCCC)c3)c2)c1`, in [1], the Activity amounted to 36.1%.
Same read-out and setting: the result for `Cc1cc[n+](CCCC#Cc2cc(C#CCCC[n+]3ccc(C)c(C)c3)c(C#CCCC[n+]3ccc(C)c(C)c3)cc2C#CCCC[n+]2ccc(C)c(C)c2)cc1C` reads 47.4%; that for `Cc1cc[n+](CCCC#Cc2cc(C#CCCC[n+]3ccc(C)c(C)c3)cc(C#CCCC[n+]3ccc(C)c(C)c3)c2)cc1C`, 61.1%.
Take `c1ccc(-c2ccc[n+](CCCCCc3cc(CCCCC[n+]4cccc(-c5ccccc5)c4)c(CCCCC[n+]4cccc(-c5ccccc5)c4)cc3CCCCC[n+]3cccc(-c4ccccc4)c3)c2)cc1`: the Activity in experiment [1] stood at 6.5%. Moreover, the IC50 amounted to 0.099 µM in experiment [2] and 0.0054 µM in [3].
On to `Cc1cc[n+](CC#Cc2ccc(-c3ccc(C#CC[n+]4ccc(C)c(C)c4)cc3)cc2)cc1C`, for which the result in the experiment listed under Rattus norvegicus [4] and in the experiment with Rattus norvegicus [5] was inactive. The Activity was 8.1% in [1] and “Dose-dependent effect” in the experiment filed under Rattus norvegicus [7]. The result in the experiment filed under Rattus norvegicus [6] was Active. In addition, the figures for the concentration for half-maximal inhibition (IC50) in experiment [2] and in [3] were 1.19 µM and 0.016 µM, respectively.
As for `Cc1cc(C)c[n+](CCCC#Cc2cc(C#CCCC[n+]3cc(C)cc(C)c3)cc(C#CCCC[n+]3cc(C)cc(C)c3)c2)c1`, the Activity in experiment [1] was 66%.
Consider `Cc1cc[n+](CCCC#Cc2ccccc2C#CCCC[n+]2ccc(C)c(C)c2)cc1C`, for which the Activity in [1] worked out at 31.3%.
The same measure, in the same setting: the result for `c1ccc(CCCCC[n+]2cccc3ccccc32)c(CCCCC[n+]2cccc3ccccc32)c1` reads 10.9%.
For the compound `Cc1cc[n+](CCCCCc2ccccc2CCCCC[n+]2ccc(C)c(C)c2)cc1C`, the Activity in experiment [1] was 72%.
For the compound `C(#Cc1cc(C#CCCC[n+]2ccc3ccccc3c2)c(C#CCCC[n+]2ccc3ccccc3c2)cc1C#CCCC[n+]1ccc2ccccc2c1)CCC[n+]1ccc2ccccc2c1`, the Activity in experiment [1] stood at 11.6%.
In the case of `CCCCc1ccc[n+](CCCCCc2cc(CCCCC[n+]3cccc(CCCC)c3)cc(CCCCC[n+]3cccc(CCCC)c3)c2)c1`, the Activity in experiment [1] is 16.1%.
Still for that read-out and setting: the result for `Cc1cc[n+](CCCCCc2cc(CCCCC[n+]3ccc(C)c(C)c3)cc(CCCCC[n+]3ccc(C)c(C)c3)c2)cc1C` reads 62.7%; that for `Cc1cc[n+](CCC#Cc2ccc(C#CCC[n+]3ccc(C)c(C)c3)cc2)cc1C`, 10.6%.
For the compound `Cc1cc(C)c[n+](CCCC#Cc2cc(C#CCCC[n+]3cc(C)cc(C)c3)c(C#CCCC[n+]3cc(C)cc(C)c3)cc2C#CCCC[n+]2cc(C)cc(C)c2)c1`, the Activity in [1] is 0.3%.
Same read-out and setting: the result for `Cc1cc[n+](CCCc2ccc(-c3ccc(CCC[n+]4ccc(C)c(C)c4)cc3)cc2)cc1C` reads 89.3%.
As to `c1ccc2c(c1)ccc[n+]2CCCCCc1cc(CCCCC[n+]2cccc3ccccc32)cc(CCCCC[n+]2cccc3ccccc32)c1`, the result in the experiment listed under Rattus norvegicus [4] and in the experiment with Rattus norvegicus [5] was inactive. Further, the Activity in experiment [1] was 15.9%; in the experiment listed under Rattus norvegicus [7] it was “Dose-dependent effect”. For the same compound, the result in the experiment filed under Rattus norvegicus [6] was Active.
For `Cc1cc(C)c[n+](CCC#Cc2ccc(C#CCC[n+]3cc(C)cc(C)c3)cc2)c1`, the Activity in experiment [1] was 76.2%.
Same read-out and setting: in the case of `c1ccc2c[n+](CCCCCc3cc(CCCCC[n+]4ccc5ccccc5c4)cc(CCCCC[n+]4ccc5ccccc5c4)c3)ccc2c1` it was 6.9%; in that of `C(#Cc1ccccc1C#CCCC[n+]1ccc2ccccc2c1)CCC[n+]1ccc2ccccc2c1`, 28%.
The same measure, in the same setting: in the case of `c1cc(CCCCC[n+]2cccc3ccccc32)cc(CCCCC[n+]2cccc3ccccc32)c1` it was 42.6%; in that of `C(#Cc1cccc(C#CCCC[n+]2cccc(-c3ccccc3)c2)c1)CCC[n+]1cccc(-c2ccccc2)c1`, 23.2%; in that of `Cc1cc(C)c[n+](CCCC#Cc2ccccc2C#CCCC[n+]2cc(C)cc(C)c2)c1`, 67.6%.
The same measure, in the same setting: the result for `c1ccc(CCCCC[n+]2ccc3ccccc3c2)c(CCCCC[n+]2ccc3ccccc3c2)c1` reads 31.1%; that for `c1cc(CCCCC[n+]2ccc3ccccc3c2)cc(CCCCC[n+]2ccc3ccccc3c2)c1`, 37.5%.
Turning to `C(#Cc1cc(C#CCCC[n+]2cccc(-c3ccccc3)c2)cc(C#CCCC[n+]2cccc(-c3ccccc3)c2)c1)CCC[n+]1cccc(-c2ccccc2)c1`, in experiment [1], the Activity came to 5.5%.
`C(#Cc1cccc(C#CCCC[n+]2ccc3ccccc3c2)c1)CCC[n+]1ccc2ccccc2c1`: the Activity in experiment [1] worked out at 39.7%.
For `Cc1cc[n+](CCCCCc2cccc(CCCCC[n+]3ccc(C)c(C)c3)c2)cc1C`, in experiment [1], the Activity was 62.7%.
Turning to `C(#Cc1cc(C#CCCC[n+]2cccc3ccccc32)cc(C#CCCC[n+]2cccc3ccccc32)c1)CCC[n+]1cccc2ccccc21`, the Activity in experiment [1] was 10.5%.
On to `Cc1cc[n+](CCCC#Cc2cccc(C#CCCC[n+]3ccc(C)c(C)c3)c2)cc1C`, for which, in [1], the Activity was determined as 76.9%.
In the case of `C(#Cc1cc(C#CCCC[n+]2cccc(-c3ccccc3)c2)c(C#CCCC[n+]2cccc(-c3ccccc3)c2)cc1C#CCCC[n+]1cccc(-c2ccccc2)c1)CCC[n+]1cccc(-c2ccccc2)c1`, the result in the experiment listed under Rattus norvegicus [4] and in the experiment with Rattus norvegicus [5] was inactive. Moreover, the IC50 was determined as 0.8 µM in [8], 3.8 µM in [9] and 0.12 µM in experiment [10]. The Activity in experiment [1] is 0.3%; in the experiment filed under Rattus norvegicus [7], “Dose-dependent effect”. Also, in the experiment filed under Rattus norvegicus [6], the outcome was Active.
Consider `Cc1cc(C)c[n+](CCCCCc2ccccc2CCCCC[n+]2cc(C)cc(C)c2)c1`, for which the Activity in experiment [1] was 124%.
For the compound `Cc1cc(C)c[n+](CCCCCc2cc(CCCCC[n+]3cc(C)cc(C)c3)c(CCCCC[n+]3cc(C)cc(C)c3)cc2CCCCC[n+]2cc(C)cc(C)c2)c1`, the Activity in experiment [1] turned out to be 0.6%.
On the same count and under the same terms, the result for `Cc1cc[n+](CCCCc2ccc(CCCC[n+]3ccc(C)c(C)c3)cc2)cc1C` reads 36.7%; that for `C(#Cc1cccc(C#CCCC[n+]2cccc3ccccc32)c1)CCC[n+]1cccc2ccccc21`, 41.6%.
Still for that read-out and setting: the result for `Cc1cc[n+](CCCCCc2cc(CCCCC[n+]3ccc(C)c(C)c3)c(CCCCC[n+]3ccc(C)c(C)c3)cc2CCCCC[n+]2ccc(C)c(C)c2)cc1C` reads 11%; that for `Cc1cc(C)c[n+](CCCCc2ccc(CCCC[n+]3cc(C)cc(C)c3)cc2)c1`, 97.1%.
As to `Cc1cc(C)c[n+](CCCCCc2cc(CCCCC[n+]3cc(C)cc(C)c3)cc(CCCCC[n+]3cc(C)cc(C)c3)c2)c1`, the Activity in experiment [1] was found to be 79.8%.
